Assays:
Zika virus [1] = assay: Antiviral activity against Zika virus infected in African green monkey Vero cells assessed as inhibition of viral RNA replication at 10 uM after 24 hrs by RT-PCR method relative to control; assay type: functional
Zika virus [2] = assay: Potency index, ratio of mefloquine EC50 to test compound EC50 for Zika virus infected in African green monkey Vero cells; assay type: functional
[3] = Cytotoxicity against African green monkey Vero cells assessed as reduction in cell viability after 72 hrs by XTT assay; assay type: cell-based; conditions: chlorocebus sabaeus
[4] = Selectivity index, ratio of CC50 for African green monkey Vero cells to EC50 for Zika virus infected in African green monkey Vero cells; assay type: toxicity; conditions: read-out: Ratio CC50/EC50
Zika virus [5] = assay: Antiviral activity against Zika virus infected in African green monkey Vero cells assessed as inhibition of viral RNA replication after 24 hrs by RT-PCR method; assay type: functional
Vero = assay: Cytotoxicity against African green monkey Vero cells assessed as reduction in cell viability at 10 uM after 72 hrs by XTT assay relative to control; assay type: cell-based; conditions: chlorocebus sabaeus
Zika virus [6] = assay: Potency index, ratio of chloroquine EC50 to test compound EC50 for Zika virus infected in African green monkey Vero cells; assay type: functional

Structure (SMILES)	EC50 (Zika virus [5]) [µM]	inhibition at 10 µM (Zika virus [1]) [%]	Ratio EC50 (Zika virus [2])	CC50 at 72 h [3] [µM]	selectivity ratio [4]	Activity (Vero) [%]	Ratio EC50 (Zika virus [6])
COc1cc(C(F)(F)F)nc2c(C(F)(F)F)cccc12	–	12	–	–	–	–	–
OCCNc1cc(C(F)(F)F)nc2c(C(F)(F)F)cccc12	0.8	74.4	5	189	236	–	–
NCCCCCCCCCCNc1cc(C(F)(F)F)nc2c(C(F)(F)F)cccc12	–	–	–	–	–	> 80	–
FC(F)(F)c1cc(NCCCl)c2cccc(C(F)(F)F)c2n1	1.4	86.9	3	316	225	–	–
CCCCNc1cc(C(F)(F)F)nc2c(C(F)(F)F)cccc12	–	58.8	–	–	–	–	–
O[C@@H](c1cc(C(F)(F)F)nc2c(C(F)(F)F)cccc12)[C@H]1CCCCN1 [(S,R)-MEFLOQUINE]	3.6	78.8	–	212	58	–	3

Now from value to compound, other results behind:

EC50 (Zika virus [5]) [µM]	Structure (SMILES)	inhibition at 10 µM (Zika virus [1]) [%]	Ratio EC50 (Zika virus [2])	CC50 at 72 h [3] [µM]	selectivity ratio [4]	Activity (Vero) [%]	Ratio EC50 (Zika virus [6])
0.8	NCCNc1cc(C(F)(F)F)nc2c(C(F)(F)F)cccc12	78.6	5	195	243	–	–
2	NCCCNc1cc(C(F)(F)F)nc2c(C(F)(F)F)cccc12	79.9	2	287	143	–	–
12	CCN(CC)CCCC(C)Nc1ccnc2cc(Cl)ccc12 (stereo not given) [CHLOROQUINE]	–	–	412	–	–	–

Source: ChEMBL document CHEMBL3994617, “2,8-bis(trifluoromethyl)quinoline analogs show improved anti-Zika virus activity, compared to mefloquine” (Eur J Med Chem, 2017)
